pIC50: −log10 of the molar value.
Molecular target: T1, HMG-CoA synthase (Rattus norvegicus, UniProt P17425)
T1 construct: The HMG-CoA synthase was eluted from the column with 0.1 M phosphate buffer (pH 7.2); from tissue; host or cells: liver of male Charles River CD rats
T1 sequence (P17425 1-520): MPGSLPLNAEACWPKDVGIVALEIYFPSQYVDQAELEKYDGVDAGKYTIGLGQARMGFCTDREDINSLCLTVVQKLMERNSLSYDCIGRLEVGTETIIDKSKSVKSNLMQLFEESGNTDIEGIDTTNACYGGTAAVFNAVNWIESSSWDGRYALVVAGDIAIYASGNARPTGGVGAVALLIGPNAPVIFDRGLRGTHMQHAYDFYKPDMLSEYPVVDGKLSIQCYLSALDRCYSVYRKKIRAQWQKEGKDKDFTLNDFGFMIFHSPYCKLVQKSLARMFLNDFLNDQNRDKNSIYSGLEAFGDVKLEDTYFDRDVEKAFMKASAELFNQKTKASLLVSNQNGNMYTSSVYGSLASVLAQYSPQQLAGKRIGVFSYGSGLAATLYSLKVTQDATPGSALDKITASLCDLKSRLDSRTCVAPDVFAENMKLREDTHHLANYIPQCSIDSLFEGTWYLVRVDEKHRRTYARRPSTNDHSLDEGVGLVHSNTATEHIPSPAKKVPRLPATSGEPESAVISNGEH
Assay: HMG-CoA Synthase Inhibition Assay
Type: biochemical
Details: in vitro; HMG-CoA synthase purified from rat liver; 5 min preincubation with test compound at 30°, then 10 min with acetoacetyl-CoA and [14C]-acetyl-CoA
Experimental: The intrinsic HMG-CoA synthase inhibition activity of the compounds of this invention is measured by the standard in vitro protocol described below:
The livers from male Charles River CD rats (225-350 g) were homogenized in 0.25 M sucrose which was adjusted with phenylmethylsulfonylfluoride (PMSF) and N-p-tosyl-1-lysine chloromethyl ketone (TLCK) so that the final concentration of each was […], respectively. The homogenate was centrifuged at 15,000× g for 20 minutes, the supernatant filtered through a fine nylon screen to remove most of the fat layer and recentrifuged at 100,000× g for 1 hour. This supernatant was removed and 1 M potassium phosphate, dithiothreitol (DTT) and ethylene glycol-bis(β-aminoethyl ether)-N,N,N',N'-tetracetic acid (EGTA) added to give a final concentration of 0.1 M (pH 7.2), 0.5 mM and 0.1 mM, respectively. Solid ammonium sulfate was added to 50% saturation to the protein solution, it was centrifuged at 15,000× g and the supernatant discarded. This precipitated protein could be stored at -70° C. for at least one month with very little loss of activity. The ammonium sulfate precipitate was dissolved in an minimal mount of 0.06 M potassium phosphate buffer (pH 7.2) containing 0.5 mM dithiothreitol and 0.1 mM EGTA (referred to as 0.06 M phosphate buffer) and dialyzed overnight against 2 liters of the same buffer to remove the ammonium sulfate and to inactivate HMG-CoA lyase [Clinkenbeard, et al., J. Biol. Chem. 250, 3108-3116(1975)].
The dialyzed extract was added to a column of DEAE-52 (Whatman) which had been equilibrated with 0.06 M phosphate buffer (10 mg of protein to 1 ml bed volume of the resin). The DEAE-cellulose was eluted with 0.06 M phosphate buffer until the optical density at 280 nm was essentially zero. This fraction contained the β-ketoacetyl-CoA thiolase activity. The HMG-CoA synthase was eluted from the column with 0.1 M phosphate buffer (pH 7.2) containing 0.5 mM DTT and 0.1 mM EGTA, and was virtually free of all thiolase activity. The protein was precipitated by the addition of ammonium sulfate to give 50% saturation. This solution was stirred for 10 minutes at 4° C. and the precipitate collected by centrifugation at 15,000 rpm for 10 minutes. The supernatant was discarded and the precipitate dissolved in a minimum of 0.06 M phosphate buffer, pH 7.2 (about 10 ml) and the enzyme stored at -80° C.
Enzyme protein (ca. 24 mg) was added to a solution containing […] (pH 8.0), 11.7 μM MgCl2, 1.17 μM Ethylenediaminetetraacetic acid (EDTA), 0.58 μM dithiothreitol, and the indicated concentrations of the test compound (added as a 2 mg/ml solution in dimethylsulfoxide). The incubation took place in a volume of 0.085 ml at 30° in a shaking water bath. After 5 minutes, […] of a solution containing acetoacetyl-CoA and 0.1 μCi of 1-[^14 C]-acetyl-CoA was added to give a final concentrations of 0.1 and 0.4 μM, respectively. The incubation was continued for 10 more minutes and the reaction stopped by the addition of […] of the assay mixture to 0.2 ml of 6N HCl in a glass scintillation vial. The vial was heated for 1 hour at 120° after which time 0.2 ml more of 6N HCl was again added to each vial and the heating continued for another hour. Following this, 1.0 ml of 0.9% saline was added to each vial and finally 10 ml of scintillation liquid. Radioactivity was determined in a Packard Tri-Carb liquid scintillation counter.
Percent inhibition is calculated by the formula: [formula]
IC50 values were determined by plotting the log of the concentration of the test compound verses the percentage inhibition and fitting a straight line to the resulting data by using the least squares method.

SMILES | pIC50
C[C@H]1C(=O)O[C@@H]1CCCCCc1ccccc1 (relative stereo) [(CH2)5Ph, E-3-Methyl-4-(5-phenylpentyl)-2-oxetanone] | 5.85
C[C@H]1C(=O)O[C@@H]1CCCCCCc1ccccc1 (relative stereo) [(CH2)6 Ph, E-3-Methyl-4-(6-phenylhexyl)-2-oxetanone] | 5.82
C=CCCCCCCCC[C@@H]1OC(=O)[C@H]1C (relative stereo) [(CH2)8 CHCH2, E-3-Methyl-4-(9-decenyl)-2-oxetanone] | 5.80
C[C@H]1C(=O)O[C@@H]1CCCCCCCCCc1ccccc1 (relative stereo) [(CH2)9 Ph, E-3-methyl-4-(9-phenylnonyl)-2-oxetanone] | 5.92
CCCCCCCCCC[C@@H]1OC(=O)[C@H]1C (relative stereo) [(CH2)9CH3, E-3-Methyl-4-decyl-2-oxetanone] | 6.60
CC(CC(C)CCCCC1OC(=O)C1CO)=NNc1ccc(Br)cc1 (stereo not shown) [8-(3-hydroxymethyl-4-oxo-2-oxetanyl)-4-methyl-2-(4-bromophenylhydrazono)-octane] | 6.10
CC(=O)CC(C)CCCCC1OC(=O)C1CO (stereo not shown) [8-(3-hydroxymethyl-4-oxo-2-oxetanyl)-4-methyl-2-octanone] | 5.80
COCC1C(=O)OC1CCCCC(C)CC(C)OC (stereo not shown) [8-(3-methoxymethyl-4-oxo-2-oxetanyl)-4-methyl-2-methoxyoctane] | 5.26
COCC1C(=O)OC1CCCCC(C)CC(C)=O (stereo not shown) [8-(3-methoxymethyl-4-oxo-2-oxetanyl)-4-methyl-2-octanone] | 5.77
CC(=CC(=O)O)C1OC1(C)CC(C)CCCCC1OC(=O)C1CO (stereo not shown) [11-(3-hydroxymethyl-4-oxo-2-oxetanyl)-4,5-oxiranyl-3,5,7-trimethyl-2-undecenoic acid] | 7.00
COC(=O)C=C(C)C(O)C(C)(O)CC(C)CCCCC1OC(=O)C1CO (stereo not shown) [methyl 11-(3-hydroxymethyl-4-oxo-2-oxetanyl)-4,5-dihydroxy-3,5,7-trimethyl-2-undecenoate] | 5.96
COC(=O)C=C(C)C1OC1(C)CC(C)CCCCC1OC(=O)C1CO (stereo not shown) [methyl 11-(3-hydroxymethyl-4-oxo-2-oxetanyl)-4,5-oxiranyl-3,5,7-trimethyl-2-undecenoate] | 7.10
COCC1C(=O)OC1CCCCC(C)CC(C)(O)C(O)C(C)=CC(=O)OC (stereo not shown) [methyl 11-(3-methoxymethyl-4-oxo-2-oxetanyl)-4,5-dihydroxy-3,5,7-trimethyl-2-undecenoate] | 5.72
